# Source: patent publication US10160747B2, “Compounds and methods for kinase modulation, and indications therefor” (Plexxikon Inc., priority 2016, dated 2018)
# Key:
# [1] = biological target: T1, FLT3-ITD (Homo sapiens, UniProt P36888); test: FLT3-ITD recombinant enzyme kinase assay (AlphaScreen); format: biochemical; details: 8 pt; read-out: FLT3_ITD 8 pt: IC50
# T1 sequence (P36888 1-993): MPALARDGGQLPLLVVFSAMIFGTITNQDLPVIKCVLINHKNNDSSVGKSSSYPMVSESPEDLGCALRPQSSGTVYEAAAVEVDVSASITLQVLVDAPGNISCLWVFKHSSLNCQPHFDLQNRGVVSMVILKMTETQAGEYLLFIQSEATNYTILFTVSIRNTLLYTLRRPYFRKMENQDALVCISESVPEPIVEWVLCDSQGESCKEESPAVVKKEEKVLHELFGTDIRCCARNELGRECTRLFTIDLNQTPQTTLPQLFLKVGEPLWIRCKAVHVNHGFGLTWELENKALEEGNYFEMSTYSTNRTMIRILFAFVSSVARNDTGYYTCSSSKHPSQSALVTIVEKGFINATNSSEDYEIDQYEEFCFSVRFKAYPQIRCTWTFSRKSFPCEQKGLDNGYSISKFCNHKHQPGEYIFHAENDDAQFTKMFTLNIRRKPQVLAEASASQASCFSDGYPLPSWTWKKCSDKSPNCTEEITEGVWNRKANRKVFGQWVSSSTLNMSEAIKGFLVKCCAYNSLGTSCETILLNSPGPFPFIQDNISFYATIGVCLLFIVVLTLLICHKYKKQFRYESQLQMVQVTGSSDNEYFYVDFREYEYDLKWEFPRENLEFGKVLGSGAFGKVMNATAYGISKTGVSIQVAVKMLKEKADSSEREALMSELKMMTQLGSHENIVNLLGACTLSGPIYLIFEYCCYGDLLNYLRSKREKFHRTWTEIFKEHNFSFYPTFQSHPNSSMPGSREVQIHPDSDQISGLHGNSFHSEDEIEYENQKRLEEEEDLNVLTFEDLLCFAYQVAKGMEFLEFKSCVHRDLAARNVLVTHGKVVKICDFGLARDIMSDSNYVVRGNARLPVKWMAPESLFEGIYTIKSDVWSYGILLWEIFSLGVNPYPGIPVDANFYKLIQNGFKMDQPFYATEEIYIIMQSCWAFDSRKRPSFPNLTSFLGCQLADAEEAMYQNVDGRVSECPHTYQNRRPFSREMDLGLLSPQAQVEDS
# Procedure, shortened: (§1)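 AlphaScreen proximity signal at 580 nm, from PY20 acceptor and streptavidin donor beads, measures tyrosine phosphorylation of 30 nM biotin-poly(Glu4-Tyr) peptide by recombinant kinase. ATP: 10 μM (FLT3 mutants), 100 μM (c-KIT). IC50 from loss of signal.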
# [2] = biological target: T2, c-KIT (Homo sapiens, UniProt P10721); test: c-KIT recombinant enzyme kinase assay (AlphaScreen); format: biochemical; details: 100 ATP, 8 pt
# T2 construct: purchased Millipore 14-559K
# T2 sequence (P10721 26-976): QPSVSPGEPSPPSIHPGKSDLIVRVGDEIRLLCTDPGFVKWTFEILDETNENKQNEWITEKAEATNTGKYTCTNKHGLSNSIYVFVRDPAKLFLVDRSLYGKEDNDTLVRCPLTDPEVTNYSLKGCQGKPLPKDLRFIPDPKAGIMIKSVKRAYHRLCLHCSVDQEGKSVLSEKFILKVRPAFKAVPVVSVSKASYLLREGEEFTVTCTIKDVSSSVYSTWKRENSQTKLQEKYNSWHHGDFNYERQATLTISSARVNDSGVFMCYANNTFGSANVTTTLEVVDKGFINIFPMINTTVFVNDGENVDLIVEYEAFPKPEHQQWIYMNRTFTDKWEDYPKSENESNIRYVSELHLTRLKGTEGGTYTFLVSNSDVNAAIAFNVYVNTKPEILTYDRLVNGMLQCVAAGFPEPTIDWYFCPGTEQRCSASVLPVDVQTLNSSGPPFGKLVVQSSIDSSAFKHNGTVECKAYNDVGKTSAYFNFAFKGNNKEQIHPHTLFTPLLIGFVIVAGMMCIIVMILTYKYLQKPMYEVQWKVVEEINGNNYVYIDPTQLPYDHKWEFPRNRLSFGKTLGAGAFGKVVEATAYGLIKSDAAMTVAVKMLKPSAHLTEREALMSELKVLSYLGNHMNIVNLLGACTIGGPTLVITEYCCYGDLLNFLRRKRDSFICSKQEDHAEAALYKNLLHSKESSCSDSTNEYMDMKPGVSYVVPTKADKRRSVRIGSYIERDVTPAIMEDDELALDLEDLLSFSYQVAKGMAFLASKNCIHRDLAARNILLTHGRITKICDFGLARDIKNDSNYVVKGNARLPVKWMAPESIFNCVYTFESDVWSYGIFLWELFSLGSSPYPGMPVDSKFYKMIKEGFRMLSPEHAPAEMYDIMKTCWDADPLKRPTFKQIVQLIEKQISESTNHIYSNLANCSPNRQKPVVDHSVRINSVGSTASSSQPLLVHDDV
# Procedure, shortened: as §1
IC50 [1] [µM],IC50 [2] [µM],Compound
0.0001 to 10,0.0001 to 10,"COc1ncc(NC(=O)Cc2ccc(-c3cnc4[nH]c(C#CC(C)(C)O)cc4c3)cc2)cc1C(F)(F)F [Compound P-0214, 2-(4-(2-(3-hydroxy-3-methylbut-1-yn-1-yl)-1H-pyrrolo[2,3-b]pyridin-5-yl)phenyl)-N-(6-methoxy-5-(trifluoromethyl)pyridin-3-yl)acetamide]"
0.0001 to 10,0.0001 to 10,"Cn1cc(Nc2ncc(-c3ccc(CC(=O)Nc4cc(C(F)(F)F)ccn4)cc3F)cn2)cn1 [Compound P-0017, 2-[3-fluoro-4-[2-[(1-methylpyrazol-4-yl)amino]pyrimidin-5-yl]phenyl]-N-[4-(trifluoromethyl)-2-pyridyl]acetamide]"
0.0001 to 10,0.0001 to 10,"CCn1cc(Nc2ncc(-c3ccc(CC(=O)Nc4cncc(C(F)(F)F)c4)c(F)c3)cn2)cn1 [Compound P-0258, 2-[4-[2-[(1-ethylpyrazol-4-yl)amino]pyrimidin-5-yl]-2-fluoro-phenyl]-N-[5-(trifluoromethyl)-3-pyridyl]acetamide]"
0.0001 to 10,0.0001 to 10,"O=C(Cc1ccc(-c2cnc(Nc3cnn(C4CC4)c3)nc2)cc1)Nc1ccc(C(F)(F)F)nc1 [Compound P-0235, 2-[4-[2-[(1-cyclopropylpyrazol-4-yl)amino]pyrimidin-5-yl]phenyl]-N-[6-(trifluoromethyl)-3-pyridyl]acetamide]"
0.0001 to 10,0.0001 to 10,"COCCn1cc(Nc2ncc(-c3ccc(CC(=O)Nc4ccc(C(F)(F)F)cn4)cc3)cn2)cn1 [Compound P-0274, 2-[4-[2-[[1-(2-methoxyethyl)pyrazol-4-yl]amino]pyrimidin-5-yl]phenyl]-N-[5-(trifluoromethyl)-2-pyridyl]acetamide]"
0.0001 to 10,0.0001 to 10,"COc1ncc(NC(=O)Cc2ccc(-c3cnc4[nH]nc(N)c4c3)c(F)c2)cc1C(F)(F)F [Compound P-0203, 2-[4-(3-amino-1H-pyrazolo[3,4-b]pyridin-5-yl)-3-fluoro-phenyl]-N-[6-methoxy-5-(trifluoromethyl)-3-pyridyl]acetamide]"
0.0001 to 10,0.0001 to 10,"Cn1cc(Nc2ncc(-c3ccc(CC(=O)Nc4cncc(C(F)(F)F)c4)cc3F)cn2)cn1 [Compound P-0205, 2-[3-fluoro-4-[2-[(1-methylpyrazol-4-yl)amino]pyrimidin-5-yl]phenyl]-N-[5-(trifluoromethyl)-3-pyridyl]acetamide]"
0.0001 to 10,0.0001 to 10,"CCn1cc(Nc2ncc(-c3ccc(CC(=O)Nc4cnc(Cl)c(C(F)(F)F)c4)c(F)c3)cn2)cn1 [Compound P-0260, N-[6-chloro-5-(trifluoromethyl)-3-pyridyl]-2-[4-[2-[(1-ethylpyrazol-4-yl)amino]pyrimidin-5-yl]-2-fluoro-phenyl]acetamide]"
0.0001 to 10,0.0001 to 10,"O=C(Cc1ccc(-c2cnc(Nc3cnn(C4CC4)c3)nc2)cc1)Nc1cncc(C(F)(F)F)c1 [Compound P-0231, 2-[4-[2-[(1-cyclopropylpyrazol-4-yl)amino]pyrimidin-5-yl]phenyl]-N-[5-(trifluoromethyl)-3-pyridyl]acetamide]"
0.0001 to 10,0.0001 to 10,"CCn1cc(Nc2ncc(-c3ccc(CC(=O)Nc4ccc(C(F)(F)F)cn4)c(F)c3)cn2)cn1 [Compound P-0256, 2-[4-[2-[(1-ethylpyrazol-4-yl)amino]pyrimidin-5-yl]-2-fluoro-phenyl]-N-[5-(trifluoromethyl)-2-pyridyl]acetamide]"
0.0001 to 10,0.0001 to 10,"O=C(Cc1ccc(-c2cnc(Nc3cnn(C4CC4)c3)nc2)cc1F)Nc1cc(C(F)(F)F)ccn1 [Compound P-0244, 2-[4-[2-[(1-cyclopropylpyrazol-4-yl)amino]pyrimidin-5-yl]-2-fluoro-phenyl]-N-[4-(trifluoromethyl)-2-pyridyl]acetamide]"
0.0001 to 10,0.0001 to 10,"CCn1cc(Nc2ncc(-c3ccc(CC(=O)Nc4ccc(C(F)(F)F)cn4)cc3)cn2)cn1 [Compound P-0251, 2-[4-[2-[(1-ethylpyrazol-4-yl)amino]pyrimidin-5-yl]phenyl]-N-[5-(trifluoromethyl)-2-pyridyl]acetamide]"
0.0001 to 10,0.0001 to 10,"O=C(Cc1ccc(-c2cnc(Nc3cnn(C4CC4)c3)nc2)cc1F)Nc1cnc(Cl)c(C(F)(F)F)c1 [Compound P-0240, N-[6-chloro-5-(trifluoromethyl)-3-pyridyl]-2-[4-[2-[(1-cyclopropylpyrazol-4-yl)amino]pyrimidin-5-yl]-2-fluoro-phenyl]acetamide]"
0.0001 to 10,0.0001 to 10,"O=C(Cc1ccc(-c2cnc(Nc3cnn(C(F)F)c3)nc2)cc1)Nc1cc(C(F)(F)F)ccn1 [Compound P-0023, 2-[4-[2-[[1-(difluoromethyl)pyrazol-4-yl]amino]pyrimidin-5-yl]phenyl]-N-[4-(trifluoromethyl)-2-pyridyl]acetamide]"
0.0001 to 10,0.0001 to 10,"CCn1cc(Nc2ncc(-c3ccc(CC(=O)Nc4cnc(OC)c(C(F)(F)F)c4)c(F)c3)cn2)cn1 [Compound P-0259, 2-[4-[2-[(1-ethylpyrazol-4-yl)amino]pyrimidin-5-yl]-2-fluoro-phenyl]-N-[6-methoxy-5-(trifluoromethyl)-3-pyridyl]acetamide]"
0.0001 to 10,0.0001 to 10,"COc1ncc(NC(=O)Cc2ccc(-c3cnc4[nH]nc(Cl)c4c3)cc2)cc1C(F)(F)F [Compound P-0230, 2-[4-(3-chloro-1H-pyrazolo[3,4-b]pyridin-5-yl)phenyl]-N-[6-methoxy-5-(trifluoromethyl)-3-pyridyl]acetamide]"
0.0001 to 10,0.0001 to 10,"O=C(Cc1ccc(-c2cnc(Nc3cnn(C4CC4)c3)nc2)cc1)Nc1ccc(C(F)(F)F)cn1 [Compound P-0236, 2-[4-[2-[(1-cyclopropylpyrazol-4-yl)amino]pyrimidin-5-yl]phenyl]-N-[5-(trifluoromethyl)-2-pyridyl]acetamide]"
0.0001 to 10,0.0001 to 10,"CCn1cc(Nc2ncc(-c3ccc(CC(=O)Nc4ccc(C(F)(F)F)nc4)cc3)cn2)cn1 [Compound P-0252, 2-[4-[2-[(1-ethylpyrazol-4-yl)amino]pyrimidin-5-yl]phenyl]-N-[6-(trifluoromethyl)-3-pyridyl]acetamide]"
0.0001 to 10,0.0001 to 10,"Cn1cnc(Nc2ncc(-c3ccc(CC(=O)Nc4cc(C(F)(F)F)ccn4)cc3F)cn2)c1 [Compound P-0018, 2-[3-fluoro-4-[2-[(1-methylimidazol-4-yl)amino]pyrimidin-5-yl]phenyl]-N-[4-(trifluoromethyl)-2-pyridyl]acetamide]"
0.0001 to 10,0.0001 to 10,"COc1n[nH]c2ncc(-c3ccc(CC(=O)Nc4cnc(C)c(C(F)(F)F)c4)cc3)cc12 [Compound P-0218, 2-[4-(3-methoxy-1H-pyrazolo[3,4-b]pyridin-5-yl)phenyl]-N-[6-methyl-5-(trifluoromethyl)-3-pyridyl]acetamide]"
0.0001 to 10,0.0001 to 10,"Cc1ncc(NC(=O)Cc2ccc(-c3cnc(Nc4cnn(C)c4C)nc3)cc2)cc1C(F)(F)F [Compound P-0229, 2-[4-[2-[(1,5-dimethylpyrazol-4-yl)amino]pyrimidin-5-yl]phenyl]-N-[6-methyl-5-(trifluoromethyl)-3-pyridyl]acetamide]"
0.0001 to 10,0.0001 to 10,"Cn1cnc(Nc2ncc(-c3cc(F)c(CC(=O)Nc4cc(C(F)(F)F)ccn4)cc3F)cn2)c1 [Compound P-0020, 2-[2,5-difluoro-4-[2-[(1-methylimidazol-4-yl)amino]pyrimidin-5-yl]phenyl]-N-[4-(trifluoromethyl)-2-pyridyl]acetamide]"
0.0001 to 10,0.0001 to 10,"COCCn1cc(Nc2ncc(-c3ccc(CC(=O)Nc4cnc(OC)c(C(F)(F)F)c4)cc3)cn2)cn1 [Compound P-0271, 2-[4-[2-[[1-(2-methoxyethyl)pyrazol-4-yl]amino]pyrimidin-5-yl]phenyl]-N-[6-methoxy-5-(trifluoromethyl)-3-pyridyl]acetamide]"
0.0001 to 10,0.0001 to 10,"COCCn1cc(Nc2ncc(-c3ccc(CC(=O)Nc4cc(C(F)(F)F)ccn4)cc3)cn2)cn1 [Compound P-0222, 2-[4-[2-[[1-(2-methoxyethyl)pyrazol-4-yl]amino]pyrimidin-5-yl]phenyl]-N-[4-(trifluoromethyl)-2-pyridyl]acetamide]"
